Tests used:
[1] = Superoxide radical scavenging activity (NBT method, McCord and Fridovich); type: biochemical; conditions: riboflavin/NBT, phosphate buffer pH 7.8, 560 nm
Procedure: Superoxide radical scavenging activity of test substances was determined by the method of McCord and Fridovich. […] The tubes were mixed well and optical densities were measured at 560 nm. The tubes were uniformly illuminated with an incandescent lamp for 15 min. and the optical densities were measured again at 560 nm. The percentage inhibition of superoxide radical generation was measured by comparing the absorbance values of control and those of the test substances. The IC50 values were obtained from the plot drawn of the concentration (μg) verses percentage inhibition.

[2] = DPPH free radical scavenging activity (method of Lamaison et al.); type: physicochemical; conditions: methanolic DPPH, 517 nm
[3] = tested on: paw edema; test: Freund complete adjuvant induced arthritis model, paw edema; type: in vivo, Sprague Dawley rats; conditions: prednisolone 10 mg/kg body weight for 14 days; paw volume 13 days after FCA; vs CMC control
Procedure: The anti-oxidant and anti-inflammatory efficacies of Aphanamixis polystachya extract or fractions were evaluated by an in vivo study in Freund complete adjuvant induced arthritis model of Sprague Dawley rats. The rats of either sex were randomly selected and divided into three groups containing four animals in each group. Rats were supplemented with 50 mg/kg body weight of A. polystachya extract, or prednisolone (10 mg/kg body weight) for 14 days. The animals of control group received only the same volume of 1% Na CMC. At the 14 th day, Freund complete adjuvant (FCA) was injected subcutaneously in the sub-plantar region of the left hind paw of each animal. At the end of experiment, the animals were sacrificed and liver tissue samples were excised and stored in aliquot at −80° C. Blood samples were collected from each animal at a regular interval and paw volumes were measured by Plethysmography equipment after 13 days of FCA inoculation. The difference in volume of edema at the day of FCA injection and at 13th day after induction is considered as the inflammatory response. The in vivo anti-inflammatory response of A. polystachya was estimated by calculating, the percentage of inhibition of paw edema when compared with the CMC supplemented control rats and was compared with that of the positive control group supplemented with prednisolone as shown in FIG. 1.

Compound	NBT method IC50 (superoxide radical scavenging) [1] [µg/mL]	DPPH method IC50 [2] [µg/mL]	inhibition in paw edema [3] [%]
O=C1O[C@H]([C@@H](O)CO)C(O)=C1O [Vitamin C]	150	4.1	
C[C@]12C=CC(=O)C=C1CC[C@@H]1[C@@H]2[C@@H](O)C[C@@]2(C)[C@H]1CC[C@]2(O)C(=O)CO [prednisolone]			47.4
